Values joined by “and” are separate entries in the source; they are usually repeats but may differ in a detail not shown here. Equal values may be shown once.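 Five concentrations, 48 hours, 96-well plates. Here, GI50 denotes the concentration required for 50% inhibition of growth. At the TGI there is no net growth.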
Key:
Test in all cases: NCI anticancer screen, dose series, 48 h
MOLT-4 leukemia = tested on: MOLT-4 leukemia
RPMI-8226 leukemia = tested on: RPMI-8226 leukemia
HL-60(TB) leukemia = tested on: HL-60(TB) leukemia
SK-MEL-5 melanoma = tested on: SK-MEL-5 melanoma
LOX IMVI melanoma = tested on: LOX IMVI melanoma
SN12C renal = tested on: SN12C renal
MCF7 breast = tested on: MCF7 breast
K-562 leukemia = tested on: K-562 leukemia
HT29 colon = tested on: HT29 colon
SK-OV-3 ovarian = tested on: SK-OV-3 ovarian

Compound	GI50 (MOLT-4 leukemia)	TGI (MOLT-4 leukemia)	GI50 (RPMI-8226 leukemia)	TGI (RPMI-8226 leukemia)	GI50 (HL-60(TB) leukemia)	TGI (HL-60(TB) leukemia)	GI50 (SK-MEL-5 melanoma)	TGI (SK-MEL-5 melanoma)	GI50 (LOX IMVI melanoma)	TGI (LOX IMVI melanoma)	GI50 (SN12C renal)	TGI (SN12C renal)	GI50 (MCF7 breast)	TGI (MCF7 breast)	GI50 (K-562 leukemia)	TGI (K-562 leukemia)	GI50 (HT29 colon)	TGI (HT29 colon)	TGI (SK-OV-3 ovarian)	GI50 (SK-OV-3 ovarian)
CCN(C(=O)CN1CCN(c2cc3c(cc2F)c(=O)c(C(=O)O)cn3CC)CC1)c1nc(-c2ccccc2)cs1	0.376 µM	> 100 µM	0.344 µM	> 100 µM	0.199 µM	0.47 µM	0.238 µM	0.551 µM	0.325 µM	> 100 µM	0.402 µM	> 100 µM	0.295 µM	> 100 µM	0.337 µM	> 100 µM	0.301 µM	> 100 µM		
CCN(CC)C(=O)COc1cc2c(O)c3c(O)c(C)c4c(c13)C(=O)C(C)(OC=CC(OC)C(C)C(OC(C)=O)C(C)C(O)C(C)C(O)C(C)C=CC=C(C)C(=O)N2)O4 (stereo not drawn)		> 100 µM		> 100 µM				> 100 µM		> 100 µM		> 100 µM		> 100 µM		> 100 µM		> 100 µM	> 100 µM	
Nc1ncnc2c1nnn2C1C=C(CO)C(O)C1O (stereo not drawn)		> 100 µM		> 62.7 µM		28.5 µM		> 100 µM		> 55.3 µM		> 82.7 µM				> 100 µM		> 100 µM	> 100 µM	
O=C(COc1ccc(Cl)cc1)N1CCN(C(=O)COc2ccc(Cl)cc2)c2ccccc21		> 100 µM		> 100 µM		37.2 µM				> 100 µM						> 100 µM		> 100 µM	> 100 µM	
CC1=C(C(=O)Nc2ccc(F)c(Cl)c2)C(c2ccccc2O)NC(=O)N1 (stereo not drawn)			46.1 µM	> 100 µM	59.6 µM	> 100 µM	41.2 µM	> 100 µM	80.5 µM	> 100 µM	> 100 µM	> 100 µM	70.5 µM	> 100 µM	58.1 µM	> 100 µM	41.4 µM	> 100 µM	> 100 µM	> 100 µM
C/C(=C\Cc1cc(O)ccc1O)CCc1c(C)c(O)c(O)c(C=O)c1C		> 100 µM		80.3 µM		> 100 µM		30.2 µM				77.8 µM				> 100 µM		64.8 µM	95.7 µM	
O=C(O)[C@@H](NS(=O)(=O)c1ccc2ccccc2c1)c1ccccc1		> 100 µM		> 100 µM		> 100 µM				> 100 µM		> 100 µM				> 100 µM		> 100 µM	> 100 µM	
Nc1ccc(C(=O)NN2C(=O)C(Cl)C2c2cccc(O)c2)cc1 (stereo not drawn)		41.1 µM		41.7 µM		8.76 µM		31.7 µM		16.2 µM		32.3 µM				44.5 µM		35.2 µM	34.3 µM	
C#C[C@H]1CCCCCC1O (stereo partly drawn)		> 100 µM				> 100 µM		> 100 µM		> 100 µM		> 100 µM				> 100 µM		> 100 µM	> 100 µM	
CCN(CC)C(=S)SSC(=S)N(CC)CC	17.7 µM and 16 µM	46.6 µM and 48.5 µM	13.6 µM and 15 µM	30.5 µM and 46.6 µM	25.9 µM and 22.4 µM	56.3 µM and 52.5 µM	16.6 µM and 14.6 µM	39.9 µM and 33.5 µM	14.4 µM and 12.8 µM	31.2 µM and 29.9 µM	15 µM and 15.5 µM	29.3 µM and 31.9 µM			25.2 µM and 19.6 µM	51.5 µM and 47.3 µM	16.5 µM and 16.8 µM	31.5 µM and 35.5 µM	173 µM	49.4 µM and 58.9 µM
CCC[CH2][Sn]([CH2]CCC)([O]C(=O)/C=C/c1ccccc1F)[O]C(=O)/C=C/c1ccccc1F	0.267 µM	1.71 µM	0.222 µM	1.2 µM	0.536 µM	4.87 µM	0.985 µM	2.31 µM	0.289 µM	0.906 µM	1.03 µM	2.29 µM			0.232 µM	1.4 µM	1.58 µM	3.07 µM	4.48 µM	2.04 µM
C=C1C(=O)O[C@H]2[C@H]1CC/C(CNC(=O)/C=C/c1ccccc1)=C\CC[C@@]1(C)O[C@@H]21	1.47 µM	5.22 µM	0.71 µM	3.9 µM			1.68 µM	3.06 µM	0.997 µM	2.29 µM	1.15 µM	2.79 µM			0.551 µM	7.09 µM	0.754 µM	3.04 µM	26 µM	13.2 µM
COC(=O)C#CCC1CCCC1C1SCCS1 (stereo not drawn)		75.6 µM				> 100 µM		> 100 µM		> 100 µM		> 100 µM				> 100 µM		> 100 µM	> 100 µM	
CC(=O)Nc1ccc(C(=O)NN2C(=O)C(Cl)C2c2ccc(O)cc2)cc1 (stereo not drawn)		> 100 µM				> 100 µM		> 100 µM		> 100 µM		> 100 µM				> 100 µM		> 100 µM	> 100 µM	
CCC1C(=O)OCc2c1cc1n(c2=O)C(CC)c2c-1nc1ccccc1c2Cl (stereo not drawn)		> 100 µM		50 µM		57.3 µM		40.5 µM		> 100 µM						> 100 µM		77.1 µM	89 µM	
CCN(CC)CCCC(C)Nc1c(Sc2cnc3cc(Cl)ccc3c2NC(C)CCCN(CC)CC)cnc2cc(Cl)ccc12 (stereo not drawn)		4.57 µM		4.55 µM		3.62 µM				3.36 µM		3.53 µM				3.7 µM		3.65 µM	3.08 µM	
COc1ccc(-c2onc(-c3c(C)cc(C)cc3C)c2C2=NCCN2)cc1		> 100 µM		> 100 µM		59.3 µM		36.6 µM		> 100 µM		> 100 µM				> 100 µM		> 100 µM	> 100 µM	
O=C(N/C(=C\c1cc(Cl)ccc1Cl)c1nc2ccc(Cl)cc2[nH]1)c1ccccc1		37.2 µM		40.4 µM		37.1 µM		25.9 µM		26.4 µM		34 µM				41.1 µM		30.9 µM	51.8 µM	
COc1cccc2c1[C@H]1CO[C@H]3C4C[C@H](C(=O)O)C([C@@H](C2)N13)N4C (stereo partly drawn)	0.45 µM				0.368 µM	4.03 µM and 1.85 µM	0.588 µM	4.31 µM and 1.23 µM		3.29 µM and > 23.9 µM	0.884 µM	8.32 µM and > 35.8 µM	0.296 µM	10 µM	0.397 µM				7.84 µM and 1.75 µM	6.06 µM and 0.803 µM
CCN(CC)CCC(CNc1c(C)cnc2cc(Cl)ccc12)c1ccc(Cl)cc1 (stereo not drawn)	5.27 µM	23.8 µM	2.96 µM	13.6 µM	4.45 µM	26.9 µM	1.73 µM	3.18 µM			12.8 µM	28.8 µM	3.27 µM	16.3 µM					28.9 µM	15.1 µM
